The text below walks through data of ChEMBL document CHEMBL5543114, “Chimeric NOD2 Mincle Agonists as Vaccine Adjuvants” (J Med Chem, 2024).

A short description of data set [1]: Drug hydrolysis in water at pH 7 assessed as half life by HPLC-UV analysis. The following applies: buffer. The format is physicochemical.
The next data set concerns 2B4. Nature of the data set: Induction of NFAT-GFP signal in mouse 2B4 reporter cells expressing mMincle + FcRgamma at 0.1 to 1 nmol incubated for 18 hrs by flow cytometry analysis. The format is functional, cell-based. The following applies: dose 0.1-1 nmol. For orientation: A flow cytometer gives signals particle by particle.
For data set [2], the system named is BMDM. In words: Induction of IL-1beta production in C57BL/6 mouse BMDM at 1 nmol incubated for 48 hrs by ELISA. It counts as functional, cell-based.
Data set [3] deals with BMDM. Nature of the data set: Induction of IL-6 production in C57BL/6 mouse BMDM at 1 nmol incubated for 48 hrs by ELISA. It counts as functional, cell-based. A general note: In an ELISA, binding on a coated surface is turned into a signal by an enzyme label.
The nature of data set [4]: Drug hydrolysis in water at pH 4.4 assessed as half life by HPLC-UV analysis. It counts as physicochemical.
Data set [5] deals with Splenocyte. In words: Improvement in memory response in ovalbumin immunized C57BL/6 mouse splenocytes assessed as increase in IFNgamma level incubated for 72 hrs by ELISA. The format is functional, cell-based.
Data set [6] is described as follows: Drug hydrolysis in water at pH 1 assessed as half life by HPLC-UV analysis. The format is physicochemical.
Data set [7] relates to HEK293. In words: Induction of IL-8 production in HEK293 cells expressing mouse NOD2 at 5 to 50 uM incubated for 20 hrs by ELISA. It counts as functional, cell-based. The note with it: Homo sapiens, dose 5-50 µM.
Data set [8] concerns BMDM. Nature of the data set: Induction of IL-23 production in C57BL/6 mouse BMDM at 1 nmol incubated for 48 hrs by ELISA. The format is functional, cell-based.
Data set [9] is described as follows: Toxicity in ovalbumin immunized C57BL/6 mouse assessed as body weight loss at 40 nmol boosted with OVA at 1 week and measured after week 3, 4, 5 and 6. The note with it: in vivo, 1008 h, time 6 weeks.
The species named for a further data set is Mus musculus. Nature of the data set: Adjuvanticity in ovalbumin immunized C57BL/6 mouse assessed as increase in anti-OVA IgG titers at 40 nmol boosted with OVA at 1 week and measured after week 4, 5, 6 by ELISA. The format is functional, organism-based. The following applies: time 6.0 weeks.
Data set [10] deals with Splenocyte. Nature of the data set: Improvement in memory response in ovalbumin immunized C57BL/6 mouse splenocytes assessed as increase in IFNgamma level incubated for 72 hrs in presence of (4R)-4-[[(2S)-2-[[(2R)-2-[(3R,4R,5S,6R)-3-acetamido-2,5-dihydroxy-6-(hydroxymethyl)tetrahydropyran-4-yl]oxypropanoyl]amino]propanoyl]amino]-5-amino-5-oxo-pentanoic acid by ELISA. The format is functional, cell-based.

Data set [11] has as its system BMDM. Nature of the data set: Induction of IL-23 production in C57BL/6 mouse BMDM cells at 1 nmol per well incubated for 48 hrs in presence of 2.5 ug/ml (2R,6S)-2-amino-6-[[(4R)-4-amino-4-carboxy-butanoyl]amino]heptanedioic acid by ELISA. The format is functional, cell-based.
In data set [12] the test system is BMDM. Nature of the data set: Induction of IL-23 production in C57BL/6 mouse BMDM cells at 1 nmol per well incubated for 48 hrs in presence of 2ug/ml (4R)-4-[[(2S)-2-[[(2R)-2-[(3R,4R,5S,6R)-3-acetamido-2,5-dihydroxy-6-(hydroxymethyl)tetrahydropyran-4-yl]oxypropanoyl]amino]propanoyl]amino]-5-amino-5-oxo-pentanoic acid by ELISA. It counts as functional, cell-based.

The test system of data set [13] is HEK293. Nature of the data set: Induction of IL-8 production in HEK293 cells expressing mouse NOD2 at 5 to 50 uM incubated for 20 hrs in presence of 10 to 100 uM (4R)-4-[[(2S)-2-[[(2R)-2-[(3R,4R,5S,6R)-3-acetamido-2,5-dihydroxy-6-(hydroxymethyl)tetrahydropyran-4-yl]oxypropanoyl]amino]propanoyl]amino]-5-amino-5-oxo-pentanoic acid by ELISA. The note with it: Homo sapiens, dose 5-50 µM. The format is functional, cell-based.

In data set [14] the test system is BMDM. Nature of the data set: Induction of IL-1beta production in C57BL/6 mouse BMDM cells at 1 nmol per well incubated for 48 hrs in presence of 2 ug/ml (4R)-4-[[(2S)-2-[[(2R)-2-[(3R,4R,5S,6R)-3-acetamido-2,5-dihydroxy-6-(hydroxymethyl)tetrahydropyran-4-yl]oxypropanoyl]amino]propanoyl]amino]-5-amino-5-oxo-pentanoic acid by ELISA. It counts as functional, cell-based.

Data set [15] relates to BMDM. Nature of the data set: Induction of IL-23 production in C57BL/6 mouse BMDM cells at 1 nmol per well incubated for 48 hrs in presence of 2 ug/ml murabutide by ELISA. It counts as functional, cell-based.
The subject of data set [16] is BMDM. Nature of the data set: Induction of IL-23 production in C57BL/6 mouse BMDM cells at 2 ug/ml incubated for 48 hrs in presence of 1 nmol [(2R,3S,4S,5R,6R)-3,4,5-trihydroxy-6-[(3R,4S,5S,6R)-3,4,5-trihydroxy-6-[(4-octadecoxybenzoyl)oxymethyl]tetrahydropyran-2-yl]oxy-tetrahydropyran-2-yl]methyl 4-octadecoxybenzoate by ELISA. The format is functional, cell-based. The note with it: dose 2.0 µg/ml.

Data set [17] deals with BMDM. Nature of the data set: Induction of IL-23 production in C57BL/6 mouse BMDM cells at 2.5 ug/ml incubated for 48 hrs in presence of 1 nmol [(2R,3S,4S,5R,6R)-3,4,5-trihydroxy-6-[(3R,4S,5S,6R)-3,4,5-trihydroxy-6-[(4-octadecoxybenzoyl)oxymethyl]tetrahydropyran-2-yl]oxy-tetrahydropyran-2-yl]methyl 4-octadecoxybenzoate by ELISA. It counts as functional, cell-based. The following applies: dose 2.5 µg/ml.

Data set [18] has as its system BMDM. Nature of the data set: Induction of IL-1beta production in C57BL/6 mouse BMDM cells at 1 nmol per well incubated for 24 hrs by ELISA. The format is functional, cell-based.
The test system of data set [19] is BMDM. Nature of the data set: Induction of MIP-2 production in C57BL/6 mouse BMDM cells at 1 nmol per well incubated for 24 hrs by ELISA. The format is functional, cell-based.
The subject of data set [20] is BMDM. Nature of the data set: Induction of IL-6 production in C57BL/6 mouse BMDM cells at 1 nmol per well incubated for 24 hrs by ELISA. The format is functional, cell-based.

Active and inactive are the calls of the source.

Turning to `CON(CCCn1cc(CCCCCCCCCCCCCCCCCOc2ccc(C(=O)OC[C@H]3OC(O[C@H]4O[C@H](COC(=O)c5ccc(OCCCCCCCCCCCCCCCCCc6cn(CCCN(OC)[C@H]7O[C@@H](CO)[C@H](O)[C@@H](O[C@H](C)C(=O)N[C@@H](C)C(=O)N[C@H](CCC(=O)O)C(N)=O)[C@@H]7NC(C)=O)nn6)cc5)[C@@H](O)[C@H](O)[C@H]4O)[C@H](O)[C@@H](O)[C@@H]3O)cc2)nn1)[C@@H]1O[C@@H](CO)[C@H](O)[C@@H](O[C@H](C)C(=O)N[C@@H](C)C(=O)N[C@H](CCC(=O)O)C(N)=O)[C@@H]1NC(C)=O` (stereo partly specified), the t1/2 in data set [1] is 1 yr. Further, the outcome in the data set with 2B4, with BMDM [2], in the data set on BMDM [3], in the data set with Splenocyte [5], in the data set on HEK293 [7] and in the data set with BMDM [8] was Active. Besides, the result in the data set filed under Mus musculus was Active. Further, the half-life in [4] is 60 h; in data set [6], 1 h. In addition, the Activity result in [9] is “Non-Toxic”.

`CCCCCCCCCCCCCCCCCCOc1ccc(C(=O)OC[C@H]2O[C@H](O[C@H]3O[C@H](COC(=O)c4ccc(OCCCCCCCCCCCCCCCCCC)cc4)[C@@H](O)[C@H](O)[C@H]3O)[C@H](O)[C@@H](O)[C@@H]2O)cc1`: the result in the data set on Splenocyte [10], with 2B4, in the data set with BMDM [12], with HEK293 [13] and in the data set with BMDM [14] was Active. Also, the outcome in the data set with BMDM [11], in the data set with HEK293 [7] and in the data set on BMDM [15] was inactive.

On to `CCCCOC(=O)[C@@H](CCC(N)=O)NC(=O)[C@H](C)NC(=O)[C@@H](C)O[C@H]1[C@H](O)[C@@H](CO)OC(O)[C@@H]1NC(C)=O` (stereo partly specified), for which the outcome in the data set with BMDM [16] was inactive.

In the case of `N[C@H](CCC[C@H](NC(=O)CC[C@@H](N)C(=O)O)C(=O)O)C(=O)O`, the result with BMDM [17] was inactive.

`CCCCCCCCCCCCCCCCCCOc1ccc(C(=O)OC[C@H]2O[C@H](O[C@H]3O[C@H](COC(=O)c4ccc(OCCCCCCCCCCCCCCCCCC)cc4OCc4cn(CCCN(OC)[C@@H]5O[C@H](CO)[C@@H](O)[C@H](O)[C@H]5NC(C)=O)nn4)[C@@H](O)[C@H](O)[C@H]3O)[C@H](O)[C@@H](O)[C@@H]2O)c(OCc2cn(CCCN(OC)[C@@H]3O[C@H](CO)[C@@H](O)[C@H](O)[C@H]3NC(C)=O)nn2)c1`: the outcome in the data set with BMDM [18], in the data set on BMDM [19] and in the data set with BMDM [20] was inactive.

Take `CONCCCn1cc(CCCCCCCCCCCCCCCCCOc2ccc(C(=O)OC[C@H]3O[C@H](O[C@H]4O[C@H](COC(=O)c5ccc(OCCCCCCCCCCCCCCCCCc6cn(CCCNOC)nn6)cc5)[C@@H](O)[C@H](O)[C@H]4O)[C@H](O)[C@@H](O)[C@@H]3O)cc2)nn1`: in the data set on 2B4, the outcome was Active.

With `CCCCCCCCCCCCCCCCCCCCCC(=O)OC[C@@H]1O[C@H](O[C@H]2O[C@H](COC(=O)CCCCCCCCCCCCCCCCCCCCC)[C@@H](O)[C@H](O)[C@H]2O)[C@@H](O)[C@H](O)[C@H]1O`, the outcome in the data set with HEK293 [7] was inactive.

Usually half-life stands for the time needed for the level to fall by half in the phase considered.
